According to the Kinase Knowledgebase extract (Sharma et al. 2016):

Target: PIK3CG (human) (UniProt P48736)
Assay: Assessment of PIK3CG Kinase Activity

Chain of PIK3CG (human) (P48736 whole entry, looked up): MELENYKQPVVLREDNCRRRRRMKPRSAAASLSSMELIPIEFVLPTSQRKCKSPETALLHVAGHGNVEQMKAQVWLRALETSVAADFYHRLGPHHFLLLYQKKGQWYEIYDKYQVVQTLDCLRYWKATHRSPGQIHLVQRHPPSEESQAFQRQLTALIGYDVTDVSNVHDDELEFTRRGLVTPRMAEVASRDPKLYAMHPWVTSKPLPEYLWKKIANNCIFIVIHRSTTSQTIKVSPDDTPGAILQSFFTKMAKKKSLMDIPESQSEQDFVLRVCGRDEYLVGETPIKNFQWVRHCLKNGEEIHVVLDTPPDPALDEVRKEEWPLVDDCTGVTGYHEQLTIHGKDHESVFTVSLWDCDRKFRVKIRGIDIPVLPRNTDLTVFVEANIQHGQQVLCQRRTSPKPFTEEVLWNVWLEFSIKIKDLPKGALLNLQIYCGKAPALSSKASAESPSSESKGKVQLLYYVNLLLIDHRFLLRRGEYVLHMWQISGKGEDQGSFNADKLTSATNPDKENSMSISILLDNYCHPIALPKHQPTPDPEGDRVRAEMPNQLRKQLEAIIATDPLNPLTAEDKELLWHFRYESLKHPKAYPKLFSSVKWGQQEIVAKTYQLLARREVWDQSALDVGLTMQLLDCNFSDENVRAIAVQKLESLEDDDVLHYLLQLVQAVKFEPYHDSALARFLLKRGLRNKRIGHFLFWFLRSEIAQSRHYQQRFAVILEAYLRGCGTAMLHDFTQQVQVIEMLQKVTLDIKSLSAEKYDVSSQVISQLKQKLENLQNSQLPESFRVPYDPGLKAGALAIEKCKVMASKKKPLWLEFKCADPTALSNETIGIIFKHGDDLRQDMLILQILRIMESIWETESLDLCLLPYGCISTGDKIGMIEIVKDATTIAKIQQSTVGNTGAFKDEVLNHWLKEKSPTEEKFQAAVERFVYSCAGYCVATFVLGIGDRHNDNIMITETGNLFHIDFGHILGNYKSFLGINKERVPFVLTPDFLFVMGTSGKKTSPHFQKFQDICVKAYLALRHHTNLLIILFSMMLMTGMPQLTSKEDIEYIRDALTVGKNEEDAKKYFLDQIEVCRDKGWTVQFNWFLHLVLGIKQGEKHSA

SMILES	IC50 [nM]
CCc1nnc(CCNC(=O)Nc2nc3c(s2)-c2c(c(-c4cccnc4)nn2-c2ccccc2Cl)CC3)o1	< 800
O=C(NC[C@H]1CCCN1C(=O)OCc1ccccc1)Nc1nc2c(s1)-c1c(c(-c3cncnc3)nn1-c1ccccc1Cl)CC2	< 800
O=C(NCc1ccccc1-n1cccn1)Nc1nc2c(s1)-c1c(c(-c3cccnc3)nn1-c1ccccc1Cl)CC2	< 800
CC(C)(C)OC(=O)N1CCC(C(=O)N2CCC[C@@H]2CNC(=O)Nc2nc3c(s2)-c2c(c(-c4cncnc4)nn2-c2ccccc2Cl)CC3)C1 (stereo not given in full)	< 800
CC(C)(C)OC(=O)NCc1ccccc1NC(=O)Nc1nc2c(s1)-c1c(c(-c3cccnc3)nn1-c1ccccc1Cl)CC2	< 800
CN(C(=O)OC(C)(C)C)C1CCN(C(=O)Nc2nc3c(s2)-c2c(c(-c4cccnc4)nn2-c2ccccc2Cl)CC3)C1 (stereo not given)	< 800
CCc1noc(CCNC(=O)Nc2nc3c(s2)-c2c(c(-c4ccccc4)nn2-c2cccc(Cl)c2)CC3)n1	< 800
CC(=O)NCC1CCCN(C(=O)Nc2nc3c(s2)-c2c(c(-c4cccnc4)nn2-c2ccccc2Cl)CC3)C1 (stereo not given)	< 800
CC(=O)Nc1cccc(CNC(=O)Nc2nc3c(s2)-c2c(c(-c4cccnc4)nn2C2CCN(C)CC2)CC3)c1	< 800
CN(C)C(=O)CNC(=O)Nc1nc2c(s1)-c1c(c(-c3cccnc3)nn1-c1ccccc1Cl)CC2	< 800
CC(C)(C)OC(=O)N1CCC[C@H]1CNC(=O)Nc1nc2c(s1)-c1c(c(-c3cncnc3)nn1-c1ccccc1Cl)CC2	< 800
CN1CCC(n2nc(-c3cccnc3)c3c2-c2sc(NC(=O)NCc4cccc(N(C)C)c4)nc2CC3)CC1	< 800
Cn1cc(CNC(=O)Nc2nc3c(s2)-c2c(c(-c4cccnc4)nn2C2CCN(C4CCCC4)CC2)CC3)cn1	< 800
NC(=O)c1cccc(CNC(=O)Nc2nc3c(s2)-c2c(c(-c4cncnc4)nn2-c2ccccc2Cl)CC3)c1	< 800
CC(C)S(=O)(=O)NCCNC(=O)Nc1nc2c(s1)-c1c(c(-c3ccccc3)nn1-c1ccccc1Cl)CC2	< 800
CC1CC(c2ccc(O)cc2)CN1C(=O)Nc1nc2c(s1)-c1c(c(-c3cccnc3)nn1-c1ccccc1Cl)CC2 (stereo not given)	< 800
CCN1CCC[C@@H]1CNC(=O)Nc1nc2c(s1)-c1c(c(-c3cccnc3)nn1-c1ccccc1Cl)CC2	< 800
CC(=O)NC1CCN(C(=O)Nc2nc3c(s2)-c2c(c(-c4cccnc4)nn2-c2ccccc2Cl)CC3)C1 (stereo not given)	< 800
O=C1Cc2ccccc2CN1CC1CCN(C(=O)Nc2nc3c(s2)-c2c(c(-c4cccnc4)nn2-c2ccccc2Cl)CC3)C1 (stereo not given)	< 800
CN1CCN(CCCNC(=O)Nc2nc3c(s2)-c2c(c(-c4cncnc4)nn2-c2ccccc2F)CC3)CC1	< 800
CN(C)C(=O)CCCNC(=O)Nc1nc2c(s1)-c1c(c(-c3ccccc3)nn1-c1ccccc1Cl)CC2	< 800
NC(=O)Nc1cccc(CNC(=O)Nc2nc3c(s2)-c2c(c(-c4cccnc4)nn2-c2ccccc2Cl)CC3)c1	< 800
Cn1cc(CCNC(=O)Nc2nc3c(s2)-c2c(c(-c4cncnc4)nn2-c2ccccc2Cl)CC3)cn1	< 800
COc1cccc(CNC(=O)Nc2nc3c(s2)-c2c(c(-c4cccnc4)nn2C2CCN(C4CCCC4)CC2)CC3)c1	< 800
O=C(Nc1nc2c(s1)-c1c(cnn1-c1ccccc1)CC2)N1CCCCC1	< 800
CN1CCC(CNC(=O)Nc2nc3c(s2)-c2c(c(-c4cccnc4)nn2-c2ccccc2Cl)CC3)CC1	< 800
O=C(NC[C@H]1CCCN1)Nc1nc2c(s1)-c1c(c(-c3cncnc3)nn1-c1ccccc1Cl)CC2	< 800

SMILES	IC50 [nM]
O=C(NCc1cc(CN2CCOCC2)ccn1)Nc1nc2c(s1)-c1c(c(-c3cncnc3)nn1-c1ccccc1Cl)CC2	< 800
O=C(NC[C@H]1CCNC1)Nc1nc2c(s1)-c1c(c(-c3ccccc3)nn1-c1cccc(Cl)c1)CC2	< 800
CCOC(=O)N1CCC[C@@H]1CNC(=O)Nc1nc2c(s1)-c1c(c(-c3cncnc3)nn1-c1ccccc1Cl)CC2	< 800
CC(C)c1nnc(CCNC(=O)Nc2nc3c(s2)-c2c(c(-c4cccnc4)nn2C2CCN(C)CC2)CC3)o1	< 800
CC(C)(C)OC(=O)CCNC(=O)Nc1nc2c(s1)-c1c(c(-c3ccccc3)nn1-c1cccc(Cl)c1)CC2	< 800
O=C(NCCc1cccc(N2CCNC2=O)c1)Nc1nc2c(s1)-c1c(c(-c3cncnc3)nn1-c1ccccc1Cl)CC2	< 800
CNC(=O)Nc1nc2c(s1)-c1c(c(-c3cncnc3)nn1-c1ccccc1F)CC2	< 800
CC(C)c1noc(CCNC(=O)Nc2nc3c(s2)-c2c(c(-c4ccccc4)nn2-c2cccc(Cl)c2)CC3)n1	< 800
CC(=O)N(C)c1cccc(CNC(=O)Nc2nc3c(s2)-c2c(c(-c4cncnc4)nn2-c2ccccc2Cl)CC3)c1	< 800
O=C(Nc1nc2c(s1)-c1c(c(-c3cccnc3)nn1-c1ccccc1Cl)CC2)NC1(c2nc3ccc(Cl)cc3[nH]2)CCCCC1	< 800
O=C(NCCCN1CCOCC1)Nc1nc2c(s1)-c1c(c(-c3cncnc3)nn1-c1ccccc1F)CC2	< 800
CCc1nnc(CCNC(=O)Nc2nc3c(s2)-c2c(c(C4CC4)nn2-c2ccccc2Cl)CC3)o1	< 800
NC(=O)Nc1cccc(CNC(=O)Nc2nc3c(s2)-c2c(c(C4CC4)nn2-c2ccccc2Cl)CC3)c1	< 800
CN[C@@H](C)C(=O)N1CCC[C@@H]1CNC(=O)Nc1nc2c(s1)-c1c(c(-c3cncnc3)nn1-c1ccccc1Cl)CC2	< 800
O=C(Nc1ccccc1)Nc1nc2c(s1)-c1c(c(-c3cncnc3)nn1-c1ccccc1Cl)CC2	< 800
Cc1c[nH]c(CCNC(=O)Nc2nc3c(s2)-c2c(c(-c4cccnc4)nn2-c2ccccc2Cl)CC3)n1	< 800
CN1CCN(c2ccc(NC(=O)Nc3nc4c(s3)-c3c(c(-c5cncnc5)nn3-c3ccccc3F)CC4)cc2)CC1	< 800
CC(NC(=O)Nc1nc2c(s1)-c1c(c(-c3cccnc3)nn1-c1ccccc1Cl)CC2)c1cccc(NC(=O)OC(C)(C)C)c1 (stereo not given)	< 800
O=C(NCc1ccc2cc[nH]c2c1)Nc1nc2c(s1)-c1c(c(-c3cncnc3)nn1-c1ccccc1Cl)CC2	< 800
C[C@@H](NC(=O)Nc1nc2c(s1)-c1c(c(-c3ccccc3)nn1-c1ccccc1Cl)CC2)C(=O)N1CCN(C)CC1	< 800
O=C(NC[C@H]1CCNC1)Nc1nc2c(s1)-c1c(c(-c3cncnc3)nn1-c1ccccc1Cl)CC2	< 800
C[C@H](NC(=O)Nc1nc2c(s1)-c1c(c(-c3ccccc3)nn1-c1ccccc1Cl)CC2)C(=O)N1CCCCC1	< 800
CN1CCN(C(=O)CCCNC(=O)Nc2nc3c(s2)-c2c(c(-c4ccccc4)nn2-c2ccccc2Cl)CC3)CC1	< 800
CC(C)(C)OC(=O)NCc1cccc(CNC(=O)Nc2nc3c(s2)-c2c(c(-c4cccnc4)nn2-c2ccccc2Cl)CC3)c1	< 800
CN(C)CCNC(=O)Nc1nc2c(s1)-c1c(c(-c3cccnc3)nn1-c1ccccc1Cl)CC2	< 800
CCCn1cnc(CCNC(=O)Nc2nc3c(s2)-c2c(c(-c4ccccc4)nn2-c2cccc(Cl)c2)CC3)c1	< 800
CN(C)C(=O)Nc1nc2c(s1)-c1c(c(-c3cncnc3)nn1-c1ccccc1Cl)CC2	< 800

SMILES	IC50 [nM]
CCn1cnc(CCNC(=O)Nc2nc3c(s2)-c2c(c(-c4ccccc4)nn2-c2ccccc2Cl)CC3)c1	< 800
CC(C)c1cnc(CCNC(=O)Nc2nc3c(s2)-c2c(c(C4CC4)nn2-c2ccccc2Cl)CC3)o1	< 800
CN1CCN(CCNC(=O)Nc2nc3c(s2)-c2c(c(-c4cncnc4)nn2-c2ccccc2Cl)CC3)CC1	< 800
CNC(=O)c1cccc(CNC(=O)Nc2nc3c(s2)-c2c(c(-c4cccnc4)nn2C2CCN(C)CC2)CC3)c1	< 800
COc1ccccc1C1CCN(C(=O)Nc2nc3c(s2)-c2c(c(-c4cccnc4)nn2-c2ccccc2Cl)CC3)C1 (stereo not given)	< 800
CC(C)c1cccc(CNC(=O)Nc2nc3c(s2)-c2c(c(-c4cccnc4)nn2C2CCN(C)CC2)CC3)c1	< 800
CN1CCN(C(=O)N2CCC[C@@H]2CNC(=O)Nc2nc3c(s2)-c2c(c(-c4cncnc4)nn2-c2ccccc2Cl)CC3)CC1	< 800
CCc1noc(CCNC(=O)Nc2nc3c(s2)-c2c(c(-c4cncnc4)nn2-c2ccccc2Cl)CC3)n1	< 800
CC(C)(C)OC(=O)N1CC[C@H](CNC(=O)Nc2nc3c(s2)-c2c(c(-c4cncnc4)nn2-c2ccccc2Cl)CC3)C1	< 800
CC(C)(C)OC(=O)N1CCCC1CNC(=O)Nc1nc2c(s1)-c1c(c(Nc3ccccn3)nn1-c1ccccc1)CC2 (stereo not given)	< 800
O=C(NCc1ccc2nc[nH]c2c1)Nc1nc2c(s1)-c1c(c(-c3cncnc3)nn1-c1ccccc1Cl)CC2	< 800
CN1CCC(O)C2(CCCN(C(=O)Nc3nc4c(s3)-c3c(c(-c5cccnc5)nn3-c3ccccc3Cl)CC4)C2)C1 (stereo not given)	< 800
CNC(=O)c1cccc(CNC(=O)Nc2nc3c(s2)-c2c(c(-c4cccnc4)nn2-c2ccccc2Cl)CC3)c1	< 800
O=C(NCc1ccc2c(c1)OCO2)Nc1nc2c(s1)-c1c(c(-c3cncnc3)nn1-c1ccccc1Cl)CC2	< 800
O=C(NCc1ccc(CN2CCNC2=O)cc1)Nc1nc2c(s1)-c1c(c(-c3cccnc3)nn1-c1ccccc1Cl)CC2	< 800
NS(=O)(=O)c1ccc(CNC(=O)Nc2nc3c(s2)-c2c(c(-c4cncnc4)nn2-c2ccccc2Cl)CC3)cc1	< 800
CN1CCC(C(=O)N2CCC[C@@H]2CNC(=O)Nc2nc3c(s2)-c2c(c(-c4cncnc4)nn2-c2ccccc2Cl)CC3)C1 (stereo not given in full)	< 800
COc1ccc(S(=O)(=O)NCCNC(=O)Nc2nc3c(s2)-c2c(c(-c4ccccc4)nn2-c2ccccc2Cl)CC3)cc1	< 800
CCc1nnc(CCNC(=O)Nc2nc3c(s2)-c2c(c(-c4cncnc4)nn2-c2ccccc2Cl)CC3)o1	< 800
CC(C)c1noc(CCNC(=O)Nc2nc3c(s2)-c2c(c(-c4cccnc4)nn2-c2ccccc2Cl)CC3)n1	< 800
NC(=O)c1cccc(CNC(=O)Nc2nc3c(s2)-c2c(c(C4CC4)nn2-c2ccccc2Cl)CC3)c1	< 800
CC(C)(CNc1ncccn1)NC(=O)Nc1nc2c(s1)-c1c(c(-c3cccnc3)nn1-c1ccccc1Cl)CC2	< 800
CC(C)(C)OC(=O)N1CCCCC1CNC(=O)Nc1nc2c(s1)-c1c(c(-c3cncnc3)nn1-c1ccccc1Cl)CC2 (stereo not given)	< 800
CN1CCN(Cc2cccc(NC(=O)Nc3nc4c(s3)-c3c(c(-c5cncnc5)nn3-c3ccccc3F)CC4)c2)CC1	< 800
O=C(NCCc1ccncc1)Nc1nc2c(s1)-c1c(c(-c3cccnc3)nn1-c1ccccc1Cl)CC2	< 800
CCc1cnc(CCNC(=O)Nc2nc3c(s2)-c2c(c(-c4cccnc4)nn2C2CCN(C)CC2)CC3)o1	< 800
